In US20190030046A1, “USE OF PURE COMPOUNDS EXTRACTED FROM ANTRODIA CAMPHORATA” (priority 2016, published 2019):

Assays:
CPT-1a = experiment: Semiquantitative RT-PCR in liver tissue: CPT-1a; format: in vivo, C57BL/6J mice; conditions: vs HF, 4 weeks
Procedure: (§1) The difference indicates the daily food intake.
(§2) Total RNA from liver tissue was isolated with a Trizol Reagent (Molecular Research Center, Inc., Cincinnati, Ohio, USA) according to the manufacturer's instructions. The integrity of the extracted total RNA was examined by 2% agarose gel electrophoresis, and the RNA concentration was determined by […] ultraviolet (UV) light absorbency at 260 nm and 280 nm (Spectrophotometer U-2800A, Hitachi). The total RNA (1 μg) was reverse transcribed to cDNA, and 5 μL Moloney murine leukemia virus reverse transcriptase (TEpicentre, Madison, Wis., USA). The PCR was performed in a final 25 μL containing 1 U Blend Taq-Plus (TOYOBO, Japan), 10 μL of the RT cDNA product, 10 μM of each forward (F) and reverse (R) primer, 75 mM Tris-HCL (pH 8.3) containing 1 mg/L Tween 20 (pH 8.3, also known as polyoxyethylene sorbitan monolaurate), 2.5 mM dNTP (deoxy-ribonucleoside triphosphate), and 2 mM MgCl2 (magnesium chloride). The PCR products were analyzed by 2% agarose gel and stained with ethidium bromide.

SREBP-1c = experiment: Semiquantitative RT-PCR in liver tissue: SREBP-1c; format: in vivo, C57BL/6J mice; conditions: vs HF, 4 weeks
Procedure: as §1, §2

[1] = HFD-induced diabetic mice: liver lipids; format: in vivo, C57BL/6J mice; conditions: 4 weeks
C2C12 myoblasts = experiment: MTT test; format: cell-based; conditions: dose of 1 to 25 μg/mL
[2] = HFD-induced diabetic mice: histopathology (H-E) of epididymal white adipose and liver tissue; format: in vivo, C57BL/6J mice; conditions: for Adipocyte area: epididymal white adipose, 4 weeks
Procedure: as §1
Examination was performed for parts of EWAT (epididymal white adipose) and liver tissue specimens collected. The specimens above were soaked in formalin and neutral buffered solution and embedded in paraffin. Parts therein (8 μm) were cut and stained with hematoxylin and eosin. Images were photographed by a microscope (Olympus BX51, Olympus, Tokyo, Japan). Please refer to FIGS. 3(A) and 3(B).

PPARα = experiment: Western blot of PPARα protein in liver of HFD mice; conditions: compared to HF, 4 weeks
PPARγ = experiment: Western blot of PPARγ protein in liver and adipose tissue of HFD mice; conditions: compared to HF, 4 weeks
SREBP-2 = experiment: Semiquantitative RT-PCR in liver tissue: SREBP-2; format: in vivo, C57BL/6J mice; conditions: vs HF, 4 weeks
Procedure: as §1, §2

[3] = system: phospho-Akt(Ser473)/total-Akt(Ser473); experiment: phospho-Akt(Ser473)/total-Akt in C2C12 myotube cells (Western blot); format: cell-based; conditions: TT 10 and 25 μg/mL, 25 min
Procedure: In the present invention, C2C12 skeletal myoblasts (ATCC, CRL-1772) were maintained in growth media consisting of Dulbecco's modified Eagle's medium (DMEM) (Gibco BRL) and supplemented with 10% Fetal Bovine Serum (FBS) (Hyclone) and 100 U/mL penicillin/100 μg/mL streptomycin (Gibco BRL), and split 1:4 using 0.05% trypsin when 80% confluent. Myoblasts were diluted and placed in a 9 cm-diameter dish. Cells were cultured to achieve 80%-90% confluency and then the growth media was changed as 2% FBS/DMEM every 24 h for 5-7 days.
In experiments for determining GLUT4 and p-Akt(Ser473)/t-Akt proteins in tubes, differentiated C2C12 cells were serum-starved in DMEM/BSA for 2 h at 37° C. prior to incubation with MeOH crude extract (at 20, 100, 200, and 500 μg/mL), test compounds (at 1, 5, 10, and 25 μg/mL), or vehicle for 25 min, or 100 nM insulin for 25 min.
The cultures obtained by cell culture above were centrifuged, and the resulting pellet was resuspended in a homogenization buffer. The forgoing steps were performed with a filtration membrane. Protein concentrations were measured using a BCA assay (Pierce). Equal amounts of protein were diluted four times in SDS sample buffer, and subjected to SDS PAGE and Western blotting with antibodies specific for Akt, p-Akt Ser^473, and GLUT4. Density blotting analysis was performed using Alpha Easy FC software.

G6-Pase = experiment: Semiquantitative RT-PCR in liver tissue: G6-Pase; format: in vivo, C57BL/6J mice; conditions: vs HF, 4 weeks
Procedure: as §1, §2

## C=C(CC[C@@H](C(=O)O)[C@H]1CC[C@@]2(C)C3=CC[C@H]4C(C)(C)[C@@H](O)CC[C@]4(C)C3=CC[C@]12C)C(C)C [TT, dehydroeburicoic acid]
CPT-1a; HF+TT1, 10 mg/kg/day oral
  CPT-1a mRNA expression level in liver: increased
CPT-1a; HF+TT2, 20 mg/kg/day oral
  CPT-1a mRNA expression level in liver: increased
CPT-1a; HF+TT3, 40 mg/kg/day oral
  CPT-1a mRNA expression level in liver: increased
SREBP-1c; HF+TT1, 10 mg/kg/day oral
  SREBP-1c mRNA expression level in liver: decreased
SREBP-1c; HF+TT2, 20 mg/kg/day oral
  SREBP-1c mRNA expression level in liver: decreased
SREBP-1c; HF+TT3, 40 mg/kg/day oral
  SREBP-1c mRNA expression level in liver: decreased
[1]; HF+TT1, 10 mg/kg/day oral
  Liver lipids: Total lipid: 64.4 mg/g
  Liver lipids: Triacylglycerol: 53 µmol/g
[1]; HF+TT2, 20 mg/kg/day oral
  Liver lipids: Total lipid: 61.7 mg/g
  Liver lipids: Triacylglycerol: 48 µmol/g
[1]; HF+TT3, 40 mg/kg/day oral
  Liver lipids: Total lipid: 57.9 mg/g
  Liver lipids: Triacylglycerol: 47.1 µmol/g
C2C12 myoblasts
  toxicity to C2C12 myoblasts in MTT test: non-toxic
[2]; HF+TT1, 10 mg/kg/day oral
  Adipocyte area: 6872.5 ± 160.8 μm^2
[2]; HF+TT2, 20 mg/kg/day oral
  Adipocyte area: 6530.2 ± 148.2 μm^2
[2]; HF+TT3, 40 mg/kg/day oral
  Adipocyte area: 5972.4 ± 279.5 μm^2
[2]; pathohistological staining
  liver ballooning degeneration: reduce
PPARα; HF+TT1, 10 mg/kg/day oral
  PPAR protein expression level in liver: significantly increased
PPARα; HF+TT2, 20 mg/kg/day oral
  PPAR protein expression level in liver: significantly increased
PPARα; HF+TT3, 40 mg/kg/day oral
  PPAR protein expression level in liver: significantly increased
PPARγ; HF+TT1, 10 mg/kg/day oral
  PPARγ protein expression level in adipose tissue: significantly decreased
  PPARγ protein expression level in liver: significantly decreased
PPARγ; HF+TT2, 20 mg/kg/day oral
  PPARγ protein expression level in adipose tissue: significantly decreased
  PPARγ protein expression level in liver: significantly decreased
PPARγ; HF+TT3, 40 mg/kg/day oral
  PPARγ protein expression level in adipose tissue: significantly decreased
  PPARγ protein expression level in liver: significantly decreased
SREBP-2; HF+TT1, 10 mg/kg/day oral
  SREBP-2 mRNA expression level in liver: decreased
SREBP-2; HF+TT2, 20 mg/kg/day oral
  SREBP-2 mRNA expression level in liver: decreased
SREBP-2; HF+TT3, 40 mg/kg/day oral
  SREBP-2 mRNA expression level in liver: decreased
[3]
  protein expression level of phospho-Akt(Ser473)/total-Akt(Ser473): increase
G6-Pase; HF+TT1, 10 mg/kg/day oral
  G6-Pase mRNA expression level in liver: decreased
G6-Pase; HF+TT2, 20 mg/kg/day oral
  G6-Pase mRNA expression level in liver: decreased
G6-Pase; HF+TT3, 40 mg/kg/day oral
  G6-Pase mRNA expression level in liver: decreased
